Active and inactive are the calls of the source. The calls are words filed in the database; no cut-off is given here.
Columns and labels:
[1] = test system: Huh-7; assay: Induction of ER damage in human Huh-7 cells assessed as decrease in glycoprotein content at 2 to 4 uM incubated for 48 hrs by ELISA method; format: functional, cell-based; conditions: dose 2-4 µM
[2] = test system: Huh-7; assay: Induction of morphological change in human Huh-7 cells assessed as appearance of condensed cell nucleus at 2 to 4 uM measured after 48 hrs by HE staining based microscopic analysis; format: functional; conditions: dose 2-4 µM
[3] = test system: Huh-7; assay: Induction of apoptosis in human Huh-7 cells assessed as necrotic cells at 8 uM measured after 48 hrs by Annexin V-PE staining based flow cytometry analysis (reference value: 3.37%); format: functional
[4] = test system: Huh-7; assay: Induction of ER stress in human Huh-7 cells assessed as increase in ATF6 protein level at 4 uM incubated for 48 hrs in presence of 4pba by Western blot analysis; format: functional, cell-based
[5] = test system: Huh-7; assay: Induction of morphological change in human Huh-7 cells assessed as decrease in number of cells at 2 to 4 uM measured after 48 hrs by HE staining based microscopic analysis; format: functional, cell-based; conditions: dose 2-4 µM
[6] = test system: Huh-7; assay: Induction of apoptosis in human Huh-7 cells assessed as early apoptotic cells at 8 uM measured after 48 hrs by Annexin V-PE staining based flow cytometry analysis (reference value: 0.88%); format: functional
[7] = test system: Huh-7; assay: Upregulation of CRT expression level in human Huh-7 cells at 2 to 4 uM measured after 48 hrs by Western blot analysis; format: functional, cell-based; conditions: dose 2-4 µM
[8] = test system: Huh-7; assay: Induction of ER damage in human Huh-7 cells assessed as decrease in protein-disulfide bond content at 2 to 4 uM incubated for 48 hrs by absorbance based analysis; format: functional, cell-based; conditions: dose 2-4 µM
[9] = test system: Huh-7; assay: Induction of apoptosis in human Huh-7 cells assessed as early apoptotic cells at 8 uM measured after 48 hrs in presence of Z-VAD by Annexin V-PE staining based flow cytometry analysis (reference value: 0.88%); format: functional
[10] = test system: Huh-7; assay: Induction of ER stress in human Huh-7 cells assessed as increase in IRE1 protein level at 2 to 4 uM incubated for 48 hrs by Western blot analysis; format: functional, cell-based; conditions: dose 2-4 µM

COc1ccc(COc2cccc3c2C(=O)c2c(OCc4ccc(OC)cc4)cc(C(=O)NCCNCCO)cc2C3=O)cc1
Activity [1]: Active
Activity [2]: Active
Activity [3]: 1.2%
Activity [4]: inactive
Activity [5]: Active
Activity [6]: 68.79%
Activity [7]: Active
Activity [8]: Active
Activity [9]: 16.45%
Activity [10]: Active

From ChEMBL document CHEMBL6087405, “Discovery and optimization of anthraquinone derivatives containing substituted bisbenzyloxy groups as a novel scaffold damaged endoplasmic reticulum and against hepatocellular carcinoma cells” (Bioorg Med Chem, 2024)
